The source of these data is patent publication EP0409527A2, “Cis-diamineplatinum complexes with methanediphosphonate and substituted methanediphosphonate ligands as antitumor agents” (ENGELHARD CORPORATION, priority 1989, dated 1991).

“And” between values parts separate entries of the source, which are not always exact repeats. Equal entries are not always repeated.

Assay [1] concerns Sarcoma 180 ascites. Briefly: S180a screening (Sarcoma 180 ascites tumor model, survival). Type of assay: in vivo, Female CFW mice. To be noted: for %ILS: ILS > 50% indicates activity. The method, then:
(§1) The platinum-diphosphonate complexes were tested for antitumor activity using both Sarcoma 180 ascites and L1210 leukemia tumor models (see Tables 3 and 4).
Female CFW mice (18-25g) were implanted with 2 x 10^6 cells ip on day zero. Compounds were administered in 0.5 mL water ip on say one. Groups of 6 mice were used for each test dose as well as controls as defined above. The test was run for twice the MST of the control group, with survivors counted as dying on that day. An ILS of > 50% indicates activity. The tumor line was maintained through weekly transfer of 4 x 10^6 cells in CFW mice.

In assay [2] the test system is L1210 leukemia. The assay is described as follows: L1210 screening (L1210 leukemia tumor model, survival). The assay is classed as in vivo, Female CDF, mice. To be noted: for %ILS: 25% ILS or greater indicates activity, maximum 200%. Here is the method:
as §1
Female CDF, mice (16-22g) were injected with a suspension of 1x10^6 tumor cells in 0.5 mL of […] on day zero. On day one, the mice received the test compound in 0.5 mL of the chosen medium (usually water). Six mice were used for each test dose and six doses were normally given. Normal controls (six mice) received tumor on day zero and 0.5 mL of test medium on day one. Positive controls (six mice) were given tumor on day zero and 8 mg/kg cisplatin in 0.5 mL of […] on say one. All compound doses were adjusted for the actual average weight of the mice involved. Testing was terminated at 3 time the normal control mean life span. The percent increase in lifespan (%ILS) was calculated as follows: %ILS = [(mean life span (test)/mean life span (control))-1] X 100% A 25% ILS or greater indicates activity in this screen. The maximum possible ILS is 200%. The positive control must have an ILS > 25% for the test to be considered valid.

The subject of assay [3] is L1210 murine tumor system. To be noted: Nepras, Masters Thesis 1979; cited from earlier work.
Setting [4] is: survivors/mice, dose 10.00 mg/kg ip.
Where [5] appears, read: survivors/mice, dose 20.00 mg/kg ip.
[6] abbreviates: survivors/mice, dose 40.00 mg/kg ip.
Setting [7] is: survivors/mice, dose 80.00 mg/kg ip.
[8] abbreviates: survivors/mice, dose 320.00 mg/kg ip.
Setting [9] is: L1210, dose 10.00 mg/kg day one.
The mark [10] stands for this setting: L1210, dose 20.00 mg/kg day one.
Where [11] appears, read: L1210, dose 40.00 mg/kg day one.
Where [12] appears, read: L1210, dose 80.00 mg/kg day one.
Where [13] appears, read: L1210, dose 160.00 mg/kg day one.
Setting [14] is: L1210, dose 320.00 mg/kg day one.
The mark [15] stands for this setting: L1210, survivors/mice, dose 10.00 mg/kg.
[16] abbreviates: L1210, survivors/mice, dose 20.00 mg/kg.
The mark [17] stands for this setting: L1210, survivors/mice, dose 40.00 mg/kg.
Setting [18] is: L1210, survivors/mice, dose 80.00 mg/kg.
Setting [19] is: L1210, survivors/mice, dose 160.00 mg/kg.
The mark [20] stands for this setting: L1210, survivors/mice, dose 320.00 mg/kg.
Where [21] appears, read: survivors/mice, dose 160.00 mg/kg ip.

Regarding `CC(O)(P(=O)([O-])[O-])P(=O)([O-])[O-].NC1CCCCC1N.NC1CCCCC1N.[Pt+2].[Pt+2]` [Example 4, [Pt2(R,R-dach)2(HEDP)]], the “%ILS” value in assay [1] (dose 10.00 mg/kg ip day one) is -7%; in assay [1] (dose 20.00 mg/kg ip day one, 20 mg/kg) it was -10% and -4%; in assay [1] (dose 160.00 mg/kg ip day one, 160 mg/kg), 95% and 77%; in assay [1] (dose 256.00 mg/kg ip day one), 47%; in assay [1] (dose 320.00 mg/kg ip day one), 75%; in assay [2] (setting [9]), 8%. Besides, the “%ILS” value in assay [2] (setting [10]) is 3%; in assay [2] (setting [11]), 24%; in assay [2] (setting [12]), 28%; in assay [2] (setting [13]), 40%; in assay [2] (setting [14]), 72%. Also, the SURV was 0/ 6 in assay [1] (setting [4]); 0/ 6 in assay [1] (setting [5]); 0/ 6 in assay [1] (setting [6]); 0/ 6 in assay [1] (setting [7]); 5/ 6 and 3/ 6 in assay [1] (survivors/mice, dose 160.00 mg/kg ip, 160 mg/kg); 1/ 6 in assay [1] (survivors/mice, dose 256.00 mg/kg ip). Also, the SURV in assay [1] (setting [8]) was 4/ 6; in assay [2] (setting [15]), 0/ 6; in assay [2] (setting [16]), 0/ 6; in assay [2] (setting [17]), 0/ 6; in assay [2] (setting [18]), 0/ 6; in assay [2] (setting [19]) it was 0/ 6. The SURV in assay [2] (setting [20]) is 0/ 6.

As to `CC(O)(P(=O)([O-])[O-])P(=O)([O-])[O-].NCCN.NCCN.[Pt+2].[Pt+2]` [[Pt2(en)2(HEDP)]], in assay [3], the antitumor activity entry is “inactive”.

As to `NCCN.NCCN.O=P([O-])([O-])CP(=O)([O-])[O-].[Pt+2].[Pt+2]` [[Pt2(en)2(MDP)]], the antitumor activity result in assay [3] is “inactive”.

Consider `N.N.[Cl][Pt][Cl]` [cisplatin, reference compound], for which the “POS CONT %ILS” value in assay [1] (positive control of the respective experiment, 8 mg/kg cisplatin in saline, 8 mg/kg) was 58% and 92% and 82% and 63%. Further, the “POS CONT SURV” value is 2/ 5 and 4/ 6 and 3/ 6 and 1/ 6 in assay [1] (survivors/mice, positive control of the respective experiment, 8 mg/kg cisplatin, 8 mg/kg); 3/ 6 and 4/ 6 and 0/ 6 and 1/ 6 in assay [2] (L1210, survivors/mice, positive control of the respective experiment, 8 mg/kg cisplatin, 8 mg/kg).

For Na[Pt2(R,R-dach)2(PDP)] [Example 3], the “%ILS” value in assay [2] (setting [9]) is on record as 1%; in assay [2] (setting [10]), 28%; in assay [2] (setting [11]), 28%; in assay [2] (setting [12]), 55%; in assay [2] (setting [13]) it was 104%; in assay [2] (setting [14]), 111%. Moreover, the SURV is on record as 0/ 6 in assay [2] (setting [15]); 0/ 6 in assay [2] (setting [16]); 0/ 6 in assay [2] (setting [17]); 0/ 6 in assay [2] (setting [18]); 2/ 6 in assay [2] (setting [19]); 2/ 6 in assay [2] (setting [20]).

Take Na[Pt2(en)2(PDP)] [Example 2]: the “%ILS” value in assay [1] (dose 10.00 mg/kg ip day one) was -4%; in assay [1] (dose 20.00 mg/kg ip day one), 5%; in assay [1] (dose 40.00 mg/kg ip day one), 6%; in assay [1] (dose 80.00 mg/kg ip day one), 27%; in assay [1] (dose 160.00 mg/kg ip day one), 48%; in assay [1] (dose 320.00 mg/kg ip day one) it was 49%. In addition, the “%ILS” value is 0% in assay [2] (setting [9]); -3% in assay [2] (setting [10]); 0% in assay [2] (setting [11]); 20% in assay [2] (setting [12]); 23% in assay [2] (setting [13]); 11% in assay [2] (setting [14]). Further, the SURV is reported as 0/ 6 in assay [1] (setting [4]); 0/ 6 in assay [1] (setting [5]); 0/ 6 in assay [1] (setting [6]); 1/ 6 in assay [1] (setting [7]); 1/ 6 in assay [1] (setting [21]); 1/ 6 in assay [1] (setting [8]). In addition, the SURV in assay [2] (setting [15]), in assay [2] (setting [16]), in assay [2] (setting [17]), in assay [2] (setting [18]), in assay [2] (setting [19]) and in assay [2] (setting [20]) was 0/ 6 in each case.

In the case of “[Pt2(en)2(PDP-D-glucosamine)] [Example 5]”, the “%ILS” value in assay [1] (dose 10.00 mg/kg ip day one) is 0%; in assay [1] (dose 20.00 mg/kg ip day one), -3%; in assay [1] (dose 40.00 mg/kg ip day one), -5%; in assay [1] (dose 80.00 mg/kg ip day one), 0%; in assay [1] (dose 160.00 mg/kg ip day one) it was 0%; in assay [1] (dose 320.00 mg/kg ip day one) it was 28%. Further, the “%ILS” value in assay [2] (setting [9]) was -8%; in assay [2] (setting [10]) it was -15%; in assay [2] (setting [11]), 10%; in assay [2] (setting [12]) it was 4%; in assay [2] (setting [13]), 13%; in assay [2] (setting [14]) it was 16%. The SURV is listed as 0/ 6 in assay [1] (setting [4]); 0/ 6 in assay [1] (setting [5]); 0/ 6 in assay [1] (setting [6]); 0/ 6 in assay [1] (setting [7]); 0/ 6 in assay [1] (setting [21]); 0/ 5 in assay [1] (setting [8]). Further, the SURV in assay [2] (setting [16]), in assay [2] (setting [17]), in assay [2] (setting [18]), in assay [2] (setting [19]) and in assay [2] (setting [20]) was 0/ 6 in each case.

As for [Pt2(en)2(PDP-hydrazide)] [Example 7], the “%ILS” value is -14% in assay [2] (setting [9]); 21% in assay [2] (setting [10]); -18% in assay [2] (setting [11]); -14% in assay [2] (setting [12]); 20% in assay [2] (setting [13]); 0% in assay [2] (setting [14]). For the same compound, the SURV in assay [2] (setting [15]), in assay [2] (setting [16]), in assay [2] (setting [17]), in assay [2] (setting [18]), in assay [2] (setting [19]) and in assay [2] (setting [20]) was 0/ 6 each time.
